# Data as given in ChEMBL document CHEMBL3885861, “Open TG-GATES”.
# Species: Rattus norvegicus
# Test: Open TG-GATES - Regimen: Daily Repeat
# Type: toxicity, organism-based, Sprague-Dawley
# Parameters: regimen Daily Repeat, gender Male, age 6 weeks
# Conditions: in vivo, po, 60 mg/kg, route gavage, dose level Middle; for APTT / Bas / Eos / Fbg / Hb / Ht / Lym / MCH / MCHC / MCV / Mono / Neu / PT / Plat / RBC / Ret / WBC: tissue Blood; for KIDNEY_L / KIDNEY_R / KIDNEY_TOTAL: tissue Kidney; for LIVER: tissue Liver; for A/G / ALP / ALT / AST / BUN / CRE / Ca / Cl / DBIL / GLC / IP / K / LDH / Na / PL / RALB / TBIL / TC / TG / TP / gamma-GTP: tissue Plasma
compound,measurement,setting,value
CCc1oc2ccccc2c1C(=O)c1cc(Br)c(O)c(Br)c1 [BENZBROMARONE],TERMINAL_BW,"72 h, time 3 day",238.9 g
same,APTT,"72 h, time 3 day",16.6 s
same,Bas,"72 h, time 3 day",0%
same,Eos,"72 h, time 3 day",1%
same,Fbg,"72 h, time 3 day",234.4 mg/dL
same,Hb,"72 h, time 3 day",13.5 g/dL
same,Ht,"72 h, time 3 day",40%
same,Lym,"72 h, time 3 day",76.4%
same,MCH,"72 h, time 3 day",21.6 pg
same,MCHC,"72 h, time 3 day",33.8%
same,MCV,"72 h, time 3 day",63.7 fL
same,Mono,"72 h, time 3 day",7.2%
same,Neu,"72 h, time 3 day",15.8%
same,PT,"72 h, time 3 day",11.6 s
same,Plat,"72 h, time 3 day",109.3 x10_4/uL
same,RBC,"72 h, time 3 day",628.4 x10_4/ul
same,Ret,"72 h, time 3 day",7.7%
same,WBC,"72 h, time 3 day",107.1 x10_2/uL
same,KIDNEY_L,"72 h, time 3 day",1.1 g
same,KIDNEY_R,"72 h, time 3 day",1.1 g
same,KIDNEY_TOTAL,"72 h, time 3 day",2.1 g
same,LIVER,"72 h, time 3 day",14.3 g
same,A/G,"72 h, time 3 day",2
same,ALP,"72 h, time 3 day",793.8 IU/L
same,ALT,"72 h, time 3 day",33.6 IU/L
same,AST,"72 h, time 3 day",62.2 IU/L
same,BUN,"72 h, time 3 day",18 mg/dL
same,CRE,"72 h, time 3 day",0.6 mg/dL
same,Ca,"72 h, time 3 day",10.3 mg/dL
same,Cl,"72 h, time 3 day",106.2 meq/L
same,DBIL,"72 h, time 3 day",0.014 mg/dL
same,GLC,"72 h, time 3 day",190 mg/dL
same,IP,"72 h, time 3 day",7.8 mg/dL
same,K,"72 h, time 3 day",4.5 meq/L
same,LDH,"72 h, time 3 day",104.4 IU/L
same,Na,"72 h, time 3 day",140.2 meq/L
same,PL,"72 h, time 3 day",138 mg/dL
same,RALB,"72 h, time 3 day",4 g/dL
same,TBIL,"72 h, time 3 day",0.3 mg/dL
same,TC,"72 h, time 3 day",76.4 mg/dL
same,TG,"72 h, time 3 day",62.8 mg/dL
same,TP,"72 h, time 3 day",5.9 g/dL
same,gamma-GTP,"72 h, time 3 day",0.8 IU/L
same,TERMINAL_BW,"[…], time 7 day",264.4 g
same,TERMINAL_BW,"[…], time 14 day",327 g
same,TERMINAL_BW,"[…], time 28 day",383.7 g
same,APTT,"[…], time 7 day",17.8 s
same,Bas,"[…], time 7 day",0%
same,Eos,"[…], time 7 day",1.2%
same,Fbg,"[…], time 7 day",234.6 mg/dL
same,Hb,"[…], time 7 day",14.4 g/dL
same,Ht,"[…], time 7 day",42.8%
same,Lym,"[…], time 7 day",80.8%
same,MCH,"[…], time 7 day",21.3 pg
same,MCHC,"[…], time 7 day",33.7%
same,MCV,"[…], time 7 day",63.3 fL
same,Mono,"[…], time 7 day",6.4%
same,Neu,"[…], time 7 day",11%
same,PT,"[…], time 7 day",12.2 s
same,Plat,"[…], time 7 day",119.4 x10_4/uL
same,RBC,"[…], time 7 day",675.2 x10_4/ul
same,Ret,"[…], time 7 day",5.6%
same,WBC,"[…], time 7 day",106.8 x10_2/uL
same,APTT,"[…], time 14 day",17.5 s
same,Bas,"[…], time 14 day",0%
same,Eos,"[…], time 14 day",1%
same,Fbg,"[…], time 14 day",237 mg/dL
same,Hb,"[…], time 14 day",14.5 g/dL
same,Ht,"[…], time 14 day",43.2%
same,Lym,"[…], time 14 day",79.4%
same,MCH,"[…], time 14 day",21.1 pg
same,MCHC,"[…], time 14 day",33.5%
same,MCV,"[…], time 14 day",63.1 fL
same,Mono,"[…], time 14 day",7%
same,Neu,"[…], time 14 day",12.4%
same,PT,"[…], time 14 day",12.1 s
same,Plat,"[…], time 14 day",110.5 x10_4/uL
same,RBC,"[…], time 14 day",685.4 x10_4/ul
same,Ret,"[…], time 14 day",4.6%
same,WBC,"[…], time 14 day",129.3 x10_2/uL
same,APTT,"[…], time 28 day",18.4 s
same,Bas,"[…], time 28 day",0%
same,Eos,"[…], time 28 day",1.6%
same,Fbg,"[…], time 28 day",232.6 mg/dL
same,Hb,"[…], time 28 day",15.2 g/dL
same,Ht,"[…], time 28 day",45.8%
same,Lym,"[…], time 28 day",84.2%
same,MCH,"[…], time 28 day",19.3 pg
same,MCHC,"[…], time 28 day",33.1%
same,MCV,"[…], time 28 day",58.2 fL
same,Mono,"[…], time 28 day",6%
same,Neu,"[…], time 28 day",8.8%
same,PT,"[…], time 28 day",12.3 s
same,Plat,"[…], time 28 day",107.4 x10_4/uL
same,RBC,"[…], time 28 day",787.4 x10_4/ul
same,Ret,"[…], time 28 day",2.8%
same,WBC,"[…], time 28 day",139.8 x10_2/uL
same,KIDNEY_L,"[…], time 7 day",1.2 g
same,KIDNEY_R,"[…], time 7 day",1.2 g
same,KIDNEY_TOTAL,"[…], time 7 day",2.4 g
same,KIDNEY_L,"[…], time 14 day",1.4 g
same,KIDNEY_R,"[…], time 14 day",1.3 g
same,KIDNEY_TOTAL,"[…], time 14 day",2.7 g
same,KIDNEY_L,"[…], time 28 day",1.5 g
same,KIDNEY_R,"[…], time 28 day",1.5 g
same,KIDNEY_TOTAL,"[…], time 28 day",2.9 g
same,LIVER,"[…], time 7 day",16.1 g
same,LIVER,"[…], time 14 day",20.1 g
same,LIVER,"[…], time 28 day",21.5 g
same,A/G,"[…], time 7 day",2.4
same,ALP,"[…], time 7 day",869.6 IU/L
same,ALT,"[…], time 7 day",28 IU/L
same,AST,"[…], time 7 day",57 IU/L
same,BUN,"[…], time 7 day",20 mg/dL
same,CRE,"[…], time 7 day",0.6 mg/dL
same,Ca,"[…], time 7 day",10.5 mg/dL
same,Cl,"[…], time 7 day",107.4 meq/L
same,DBIL,"[…], time 7 day",0 mg/dL
same,GLC,"[…], time 7 day",186.8 mg/dL
same,IP,"[…], time 7 day",7.8 mg/dL
same,K,"[…], time 7 day",5 meq/L
same,LDH,"[…], time 7 day",96.2 IU/L
same,Na,"[…], time 7 day",139.7 meq/L
same,PL,"[…], time 7 day",154 mg/dL
same,RALB,"[…], time 7 day",4.4 g/dL
same,TBIL,"[…], time 7 day",0.3 mg/dL
same,TC,"[…], time 7 day",82.6 mg/dL
same,TG,"[…], time 7 day",80 mg/dL
same,TP,"[…], time 7 day",6.3 g/dL
same,gamma-GTP,"[…], time 7 day",0.2 IU/L
same,A/G,"[…], time 14 day",2.1
same,ALP,"[…], time 14 day",872.6 IU/L
same,ALT,"[…], time 14 day",29.4 IU/L
same,AST,"[…], time 14 day",57.8 IU/L
same,BUN,"[…], time 14 day",20.2 mg/dL
same,CRE,"[…], time 14 day",0.6 mg/dL
same,Ca,"[…], time 14 day",10.5 mg/dL
same,Cl,"[…], time 14 day",106.3 meq/L
same,DBIL,"[…], time 14 day",0.01 mg/dL
same,GLC,"[…], time 14 day",191.4 mg/dL
same,IP,"[…], time 14 day",7.6 mg/dL
same,K,"[…], time 14 day",4.7 meq/L
same,LDH,"[…], time 14 day",97.4 IU/L
same,Na,"[…], time 14 day",140.3 meq/L
same,PL,"[…], time 14 day",156.4 mg/dL
same,RALB,"[…], time 14 day",4.5 g/dL
same,TBIL,"[…], time 14 day",0.3 mg/dL
same,TC,"[…], time 14 day",85.6 mg/dL
same,TG,"[…], time 14 day",85.8 mg/dL
same,TP,"[…], time 14 day",6.6 g/dL
same,gamma-GTP,"[…], time 14 day",0.8 IU/L
same,A/G,"[…], time 28 day",1.9
same,ALP,"[…], time 28 day",605.2 IU/L
same,ALT,"[…], time 28 day",34 IU/L
same,AST,"[…], time 28 day",54 IU/L
same,BUN,"[…], time 28 day",19.2 mg/dL
same,CRE,"[…], time 28 day",0.6 mg/dL
same,Ca,"[…], time 28 day",9.9 mg/dL
same,Cl,"[…], time 28 day",108.4 meq/L
same,DBIL,"[…], time 28 day",0.016 mg/dL
same,GLC,"[…], time 28 day",185.2 mg/dL
same,IP,"[…], time 28 day",6.9 mg/dL
same,K,"[…], time 28 day",4.5 meq/L
same,LDH,"[…], time 28 day",147.4 IU/L
same,Na,"[…], time 28 day",141 meq/L
same,PL,"[…], time 28 day",144.6 mg/dL
same,RALB,"[…], time 28 day",4.3 g/dL
same,TBIL,"[…], time 28 day",0.2 mg/dL
same,TC,"[…], time 28 day",84.4 mg/dL
same,TG,"[…], time 28 day",75.4 mg/dL
same,TP,"[…], time 28 day",6.6 g/dL
same,gamma-GTP,"[…], time 28 day",1 IU/L
